# Assay results taken from patent publication US8653235B2, “Cyclic peptide compound or pharmacologically acceptable salt thereof and method for producing same” (Kwansei Gakuin Educational Foundation, priority 2010, dated 2014).
# Ends that are not written are not given here.
# Tests used:
# [1] = system: endogenous epimorphin in HaCaT cells; assay: Reference Example 1: Western blotting of endogenous epimorphin in HaCaT cells; type: cell-based, human; conditions: 0.01 or 0.025 volume % oleic acid in DH10 medium, 3 days
# Method: HaCaT cells were cultured in a 5 volume % carbon dioxide atmosphere at 37° C. for 3 days in DH10 medium (Experiment No. 1), in DH10 medium containing 0.01 volume % oleic acid (Experiment No. 2), or in DH10 medium containing 0.025 volume % oleic acid (Experiment No. 3). The cultured cells were isolated and the obtained cells were dissolved in a solubilizing reagent (composition: 2 volume % SDS, 10 volume % glycerol, 5 volume % 2-mercaptoethanol, 0.008 volume % bromophenol blue, and 0.65 M tris-HCl buffer (pH about 6.8)) to obtain a cell extract. Western blotting was performed using the obtained cell extract and an anti-epimorphin antibody (produced by R & D Systems), and the relationship between oleic acid and the level of expression of endogenous epimorphin in HaCaT cells was investigated. The relationship between oleic acid and the level of expression of β-actin in HaCaT cells was also investigated in the same manner as above except that an anti-β-actin antibody was used in place of the anti-epimorphin antibody.
# [2] = system: secreted epimorphin in HaCaT-TE cell culture supernatant; assay: Reference Example 2: secreted epimorphin in HaCaT-TE cell culture supernatant (Western blotting); type: cell-based, human; conditions: 0.01 or 0.025 volume % oleic acid in DH10 medium, 3 days
# Method: (§1) The HaCaT-TE cells obtained in Production Example 1 or the PT67-TE cells obtained in Production Example 2 were cultured in DH10 medium (Experiment No. 4), in DH10 medium containing 0.01 volume % oleic acid (Experiment No. 5), or in DH10 medium containing 0.025 volume % oleic acid (Experiment No. 6) in a 5 volume % carbon dioxide atmosphere at 37° C. for 3 days. The HaCaT-TE cells obtained in Production Example 1 or the PT67-TE cells obtained in Production Example 2 were irradiated with ultraviolet light B (UVB) at a dose of 10 mJ/cm^2, and then cultured in DH10 medium in a 5 volume % carbon dioxide atmosphere at 37° C. for 3 days (Experiment No. 7). The obtained culture was centrifuged (at 1000×g for 30 minutes) to obtain a culture supernatant. Using an anti-T7 tag antibody (produced by Novagen) and protein G Sepharose beads (produced by GE Healthcare), secreted epimorphin was collected from the obtained culture supernatant. The collected secreted epimorphin was subjected to Western blotting. Using an HRP-labeled anti-T7 tag antibody (produced by Novagen), the relationship between oleic acid and the amount of secreted epimorphin in each of the HaCaT-TE cell culture supernatant and the PT67-TE cell culture supernatant was investigated.
# [3] = system: secreted epimorphin in PT67-TE cell culture supernatant; assay: Reference Example 2: secreted epimorphin in PT67-TE cell culture supernatant (Western blotting); type: cell-based; conditions: 0.01 or 0.025 volume % oleic acid in DH10 medium, 3 days
# Method: as §1
# HaCaT-EPM cells [4] = assay: Test Example 1: effect on HaCaT-EPM cell growth (WST-1, Cell Counting Kit); type: cell-based, human; parameters: key to Score (growth recovery of HaCaT-EPM cells): ++: Compared to the case of using the control, significant growth recovery of HaCaT-EPM cells was detected (P≦0.01).; +: Compared to the case of using the control, significant growth recovery of HaCaT-EPM cells was detected (P≦0.05).; −: Significant growth recovery of HaCaT-EPM cells was not detected; conditions: peptide 0.001 mass % in DH10 medium
# Method: The cyclic peptide compound obtained in Example 1 was added to purified water to a concentration of […] to obtain a sample. The obtained sample was then added to DH10 medium in such an amount as to achieve a concentration of the cyclic peptide compound obtained in Example 1 of 0.001 mass %. The HaCaT-EPM cells obtained in Production Example 3 were cultured in the obtained medium at 37° C. in a 5 volume % carbon dioxide atmosphere, and the cells were collected over time. After adding 110 μL of a mixture of solution B with reagent A (trade name: “WST-1, ” produced by Dojindo) (the reagent A/Solution B ratio by volume=10/1) provided with a cell counter kit (trade name: “Cell Counting Kit,” produced by Dojindo), the collected cells were incubated for 3 hours. The absorbance of the obtained mixture at 450 nm was measured using a spectrophotometer (trade name: “ARVOtmS X 1420 Multilabel Counter,” produced by Wallac), and the effect of the mixture on the HaCaT-EPM cell growth was investigated. As a control, the above procedure was repeated, except that purified water was used in place of the cyclic peptide compound obtained in Example 1, and the effect on the growth of HaCaT-EPM cells was investigated. […]
# HaCaT cells = assay: Test Example 2: lumen formation rate in HaCaT cell clusters in collagen gel with oleic acid; type: cell-based, human; conditions: oleic acid 0.05 volume %, peptide 0.0001 mass %, cultured 4 days
# Method: In the following experiment, DH10 was used as a medium of Experimental No. 8. […] HaCaT cells were cultured in the DH10 medium at 37° C. in a 5 volume % carbon dioxide atmosphere. Next, the obtained HaCaT cells were suspended in 350 μL of DH10 medium containing 1000 U/mL DNase I (produced by Sigma Aldrich Co.). While rotating the obtained suspended solids in a 24-well dish (produced by Corning Inc., super-low adhesion surface) at 100 min^−1, gyratory culturing was performed for 24 hours at 37° C. in a 5 volume % carbon dioxide atmosphere to form a smooth, round cell aggregate. The formed cell aggregate was embedded in a high-density collagen gel prepared with a 0.5 mass % collagen solution (type IA) (produced by Koken Co., Ltd.). Next, the cell aggregate after embedding was cultured for 4 days in a 5 volume % carbon dioxide atmosphere at 37° C. in the medium of Experimental Nos. 8, 9, 10, or 11 to form a cell cluster. The morphology of the obtained cell cluster was observed by a phase-contrast microscope. In the cell cluster, the outermost layer cells maintain the undifferentiated state because they are in contact with collagen; however, in general, cells that are located inside the undifferentiated cells of the outermost layer promptly start differentiation, and undergo anoikis. […]
# HaCaT-EPM cells [5] = assay: Test Example 3: lumen formation rate in HaCaT-EPM cell clusters in collagen gel; type: cell-based, human; conditions: peptide 0.0001 mass %, cultured 4 days
# Method: In the following experiment, DH10 medium was used as the medium of Experimental No. 12. 1 μL of purified water was added to 1 mL of DH10 medium to obtain a medium (Experimental No. 13).
# Except for using the HaCaT-EPM cells obtained in Production Example 3 in place of the HaCaT cells in Test Example 2, and the medium of Experimental No. 12, 13, 14, or 15 in place of the medium of Experimental No. 8, 9, 10, or 11 in Test Example 2, the same procedure as in Test Example 2 was performed to calculate a lumen formation rate.
# [6] = system: differentiated cellular architecture containing HaCaT cells; assay: Test Example 7: tissue morphology of differentiated cellular architecture containing HaCaT cells treated with oleic acid (parakeratosis); type: cell-based, human; conditions: 5 μL 0.5 volume % oleic acid-containing ethanol solution and 5 μL sample with peptide 0.001 mass %; one day
# Method: In the following experiment, DH10 medium was used as a medium of Experimental No. 36. 1 μL of purified water was added to 1 mL of DH10 medium to obtain a sample (Experimental No. 37). Further, the cyclic peptide compound obtained in Example 1 was added to DH10 medium to a concentration of 0.001 mass % to obtain a sample (Experimental No. 38). Furthermore, the linear peptide obtained in Comparative Example 1 was added to DH10 medium to a concentration of 0.001 mass %, to obtain a sample (Experimental No. 39). MRC-5 cells, which are human fetal lung fibroblast cells, were cultured in 10 mL of α-MEM (produced by Gibco Laboratories containing 10 mass % heat inactivated FCS at 37° C. in a 5 volume % carbon dioxide atmosphere for 72 hours. A support (produced by BD Bioscience Co., Ltd.; trade name: cell culture insert) was provided in each well of a 24 well culture plate. In the support, the MRC-5 cells and a collagen gel mixed solution (collagen type I, produced by Nitta Gelatin, Inc.) were mixed. The obtained mixture was formed into a gel to obtain a cell-embedded gel (1.7×10^5/mL). 0.05 ml of a 1 mg/mL fibronectin aqueous solution (produced by BD Biosciences was added to the upper surface of the obtained cell-embedded gel, and the cell-embedded gel was allowed to stand for 1 hour at room temperature. […]
Compound,level of expression of endogenous epimorphin in HaCaT cells [1],secreted epimorphin in HaCaT-TE cell culture supernatant [2],secreted epimorphin in PT67-TE cell culture supernatant [3],growth of HaCaT-EPM cells (HaCaT-EPM cells [4]),"Score (growth recovery of HaCaT-EPM cells) (HaCaT-EPM cells [4]; compared to purified water control, absorbance at 450 nm)",lumen formation rate in cell clusters (HaCaT cells),lumen formation rate in cell clusters (HaCaT-EPM cells [5]),tissue morphology of the cell construct (nucleus; parakeratosis caused by oleic acid) [6]
CCCCCCCC/C=C\CCCCCCCC(=O)O [oleic acid],does not substantially affect,induces secretion of epimorphin,not detected,,,,,
SIEQSCD [Comparative Example 1],,,,grew poorly,−,low lumen formation rate,low lumen formation rate,a nucleus could be observed
